{"source": "patent US20250032490A1", "about": "“THERAPEUTIC REGIMENS FOR TREATMENT OF PAROXYSMAL NOCTURNAL HEMOGLOBINURIA” (Achillion Pharmaceuticals, Inc., priority 2017, published 2025)", "test_system": "rabbit erythrocytes", "assay": "CAP-mediated hemolysis assay with rabbit erythrocytes", "type": "cell-based", "details": "Oryctolagus cuniculus, Erythrocyte; for inhibition at 0.00234 µM: Compound 1 0.00234 μM; for inhibition at 0.00469 µM: Compound 1 0.00469 μM; for inhibition at 0.00938 µM: Compound 1 0.00938 μM; for inhibition at 0.0188 µM: Compound 1 0.0188 μM; for inhibition at 0.0375 µM: Compound 1 0.0375 μM; for inhibition at 0.075 µM: Compound 1 0.075 μM; for inhibition at 0.15 µM: Compound 1 0.15 μM; for inhibition at 0.75 µM: Compound 1 0.75 μM", "method": "Inhibition was analyzed by the method of Prichard and Shipman (Prichard, M. N. and C. Shipman, Jr. A Three-Dimensional Model to Analyze Drug-Drug Interactions. Antiviral Research 1990, 14:181-205) Three-dimensional surface graphs of each experiment were generated and analyzed using an Excel spreadsheet program adapted from the MacSynergy II spreadsheet (University of Alabama, Birmingham, AL). The X-axis and Y-axis of each surface graph represent the concentrations of the two test compounds, and the Z-axis represents the difference between measured inhibition and a theoretically determined additive inhibition. For an additive relationship, the surface graph resembles a horizontal plane at Z=0, whereas positive surface peaks indicate greater inhibition than expected and therefore synergy, and negative surface peaks indicate less inhibition than expected and therefore antagonism.\nSynergy and antagonism volumes were calculated separately as the summed volumes of peaks respectively above and below the Z=0 plane. Volumes were determined using 95% confidence limits to assure significance.\nInhibition was analyzed by the method of Chou and Talalay (Chou, T.-C. and P. Talalay. Analysis of Combined Drug Effects: A New Look at a Very Old Problem. Trends Pharmacol. Sci. 1983, 4:450-454; Chou, T. C. Theoretical basis, experimental design, and computerized simulation of synergism and antagonism in drug combination studies. Pharmacological Reviews 2006, 58:621-681). Analysis using the median-effect equation of Chou and Talalay was performed with CompuSyn software (ComboSyn, Inc, Paramus, NJ). […] Three constant ratios were analyzed in each experiment, centered approximately at the ratio of the individual IC50 values for the two compounds and ranging two-fold higher and lower. […] Combination index (CI) values were determined at inhibition values of 50%, 75%, and 90%. Interactions were considered additive for CI values between 0.9 and 1.1. […] Interactions were considered slightly antagonistic for CI values between 1.1 and 1.2, moderately antagonistic for CI values between 1.2 and 1.45; antagonistic for CI values between 1.45 and 3.3, and strongly antagonistic for CI values between 3.3 and 10.\nCompstatin was obtained from Tocris Bioscience (Bristol, UK). The murine monoclonal antibody to human C5, isotype IgGIK, was obtained as product number A217 from Quidel (San Diego, CA). FUT-175 (nafamostat) was obtained from Calbiochem EMD Millipore (Billerica, MA).\nAnti-C5 (murine monoclonal antibody to human C5, isotype IgGIK, product No. A217 from Quidel, San Diego, CA) was obtained as a 1.1 mg/mL stock in buffered saline. Gelatin veronal buffer (GVB) without Ca^++ and Mg (GVB^0), 100 mM MgCl2+100 mM EGTA (MgEGTA), normal human serum (NHS), and 5×10^8/mL rabbit erythrocytes (Er) were obtained from Complement Technology Inc. (Tyler, TX).\nGVB^0·MgEGTA was prepared by mixing GVB^0 and 100 mM MgEGTA in a 9:1 ratio. Er cells were used within two weeks of purchase; before each assay cells were collected by centrifugation at 800×g and 4° C. for 3 minutes and the buffer was replaced with equal volume fresh cold GVB^0·MgEGTA.\nEach of the 64 possible combinations of compounds at varying concentrations was tested in duplicate or triplicate wells. […] 50 μL GVB^0·MgEGTA was added to each well, followed by 50 μL 20% NHS in GVB^0·MgEGTA. The plates were sealed, mixed on a microtiter plate shaker, and incubated at 37° C. for 15 minutes. 20 μL Er was then added to each well and the plates were sealed, mixed, and incubated at 37° C. for 30 minutes with an added shaking at 15 minutes. The following controls were each included in quadruplicate: 2.4 μL DMSO+120 μL GVB^0·MgEGTA (representing background signal); 2.4 μL DMSO+100 μL GVB^0·MgEGTA+20 μL Er (no serum, representing 0% CAP-mediated lysis); 2.4 μL DMSO+50 μL GVB^0·MgEGTA+50 μL 20% NHS+20 μL Er (no compound, representing 100% CAP-mediated lysis); and 2.4 μL DMSO+100 μL H2O+20 μL Er (osmotic lysis, representing maximal lysis). […]", "key": {"[1]": {"details": "Experiment 2, Compstatin 0-30 μM"}, "[2]": {"details": "Experiment 3, Compstatin 0-30 μM"}, "[3]": {"details": "Experiment 4, Compstatin 0-30 μM"}}}
{"molecule": "CC(=O)c1nn(CC(=O)N2C[C@H](F)C[C@H]2C(=O)Nc2cccc(Br)n2)c2ccc(-c3cnc(C)nc3)cc12", "note": "[Compound 1, (2S,4R)-1-(2-(3-acetyl-5-(2-methylpyrimidin-5-yl)-1H-indazol-1-yl)acetyl)-N-(6-bromopyridin-2-yl)-4-fluoropyrrolidine-2-carboxamide]", "values": [{"measurement": "inhibition at 0.00234 µM", "setting": "[1]", "result": 0, "unit": "%"}, {"measurement": "inhibition at 0.00234 µM", "setting": "Experiment 2, FUT-175 0-40 μM", "result": 5, "unit": "%"}, {"measurement": "inhibition at 0.00469 µM", "setting": "[1]", "result": 0, "unit": "%"}, {"measurement": "inhibition at 0.00469 µM", "setting": "Experiment 2, FUT-175 0-40 μM", "result": 7, "unit": "%"}, {"measurement": "inhibition at 0.00938 µM", "setting": "[1]", "result": 3.2, "unit": "%"}, {"measurement": "inhibition at 0.00938 µM", "setting": "Experiment 2, FUT-175 0-40 μM", "result": 13, "unit": "%"}, {"measurement": "inhibition at 0.0188 µM", "setting": "[1]", "result": 16, "unit": "%"}, {"measurement": "inhibition at 0.0188 µM", "setting": "Experiment 2, FUT-175 0-40 μM", "result": 31, "unit": "%"}, {"measurement": "inhibition at 0.0375 µM", "setting": "[1]", "result": 45, "unit": "%"}, {"measurement": "inhibition at 0.0375 µM", "setting": "Experiment 2, FUT-175 0-40 μM", "result": 70, "unit": "%"}, {"measurement": "inhibition at 0.075 µM", "setting": "[1]", "result": 72, "unit": "%"}, {"measurement": "inhibition at 0.15 µM", "setting": "[1]", "result": 91, "unit": "%"}, {"measurement": "inhibition at 0.15 µM", "setting": "Experiment 2, FUT-175 0-40 μM", "result": 98, "unit": "%"}, {"measurement": "inhibition at 0.75 µM", "setting": "Experiment 2, FUT-175 0-40 μM", "result": 95, "unit": "%"}, {"measurement": "inhibition at 0.00234 µM", "setting": "[2]", "result": 3, "unit": "%"}, {"measurement": "inhibition at 0.00234 µM", "setting": "Experiment 3, FUT-175 0-40 μM", "result": 11, "unit": "%"}, {"measurement": "inhibition at 0.00469 µM", "setting": "[2]", "result": 7.7, "unit": "%"}, {"measurement": "inhibition at 0.00469 µM", "setting": "Experiment 3, FUT-175 0-40 μM", "result": 17, "unit": "%"}, {"measurement": "inhibition at 0.00938 µM", "setting": "[2]", "result": 22, "unit": "%"}, {"measurement": "inhibition at 0.00938 µM", "setting": "Experiment 3, FUT-175 0-40 μM", "result": 32, "unit": "%"}, {"measurement": "inhibition at 0.0188 µM", "setting": "[2]", "result": 41, "unit": "%"}, {"measurement": "inhibition at 0.0188 µM", "setting": "Experiment 3, FUT-175 0-40 μM", "result": 54, "unit": "%"}, {"measurement": "inhibition at 0.037 µM", "setting": "Experiment 3, Compound 1 0.037 μM, FUT-175 0-40 μM", "result": 94, "unit": "%"}, {"measurement": "inhibition at 0.0375 µM", "setting": "[2]", "result": 73, "unit": "%"}, {"measurement": "inhibition at 0.075 µM", "setting": "[2]", "result": 96, "unit": "%"}, {"measurement": "inhibition at 0.15 µM", "setting": "[2]", "result": 98, "unit": "%"}, {"measurement": "inhibition at 0.15 µM", "setting": "Experiment 3, FUT-175 0-40 μM", "result": 98, "unit": "%"}, {"measurement": "inhibition at 0.75 µM", "setting": "Experiment 3, FUT-175 0-40 μM", "result": 98, "unit": "%"}, {"measurement": "inhibition at 0.00234 µM", "setting": "[3]", "result": 0.8, "unit": "%"}, {"measurement": "inhibition at 0.00469 µM", "setting": "[3]", "result": 7.1, "unit": "%"}, {"measurement": "inhibition at 0.00938 µM", "setting": "[3]", "result": 20, "unit": "%"}, {"measurement": "inhibition at 0.0188 µM", "setting": "[3]", "result": 41, "unit": "%"}, {"measurement": "inhibition at 0.0375 µM", "setting": "[3]", "result": 81, "unit": "%"}, {"measurement": "inhibition at 0.075 µM", "setting": "[3]", "result": 97, "unit": "%"}, {"measurement": "inhibition at 0.15 µM", "setting": "[3]", "result": 99, "unit": "%"}, {"measurement": "inhibition at 0.00234 µM", "setting": "Experiment #1, FUT-175 0-40 μM", "result": 4.5, "unit": "%"}, {"measurement": "inhibition at 0.00469 µM", "setting": "Experiment #1, FUT-175 0-40 μM", "result": 8.3, "unit": "%"}, {"measurement": "inhibition at 0.0093 µM", "setting": "Experiment #1, Compound 1 0.0093 μM, FUT-175 0-40 μM", "result": 16, "unit": "%"}, {"measurement": "inhibition at 0.0188 µM", "setting": "Experiment #1, FUT-175 0-40 μM", "result": 31, "unit": "%"}, {"measurement": "inhibition at 0.0234 µM", "setting": "Experiment #1, Compound 1 0.0234 μM, Compstatin 0-30 μM", "result": 27, "unit": "%"}, {"measurement": "inhibition at 0.0375 µM", "setting": "Experiment #1, FUT-175 0-40 μM", "result": 44, "unit": "%"}, {"measurement": "inhibition at 0.0469 µM", "setting": "Experiment #1, Compound 1 0.0469 μM, Compstatin 0-30 μM", "result": 44, "unit": "%"}, {"measurement": "inhibition at 0.0938 µM", "setting": "Experiment #1, Compound 1 0.0938 μM, Compstatin 0-30 μM", "result": 75, "unit": "%"}, {"measurement": "inhibition at 0.15 µM", "setting": "Experiment #1, FUT-175 0-40 μM", "result": 96, "unit": "%"}, {"measurement": "inhibition at 0.188 µM", "setting": "Experiment #1, Compound 1 0.188 μM, Compstatin 0-30 μM", "result": 91, "unit": "%"}, {"measurement": "inhibition at 0.375 µM", "setting": "Experiment #1, Compound 1 0.375 μM, Compstatin 0-30 μM", "result": 98, "unit": "%"}, {"measurement": "inhibition at 0.75 µM", "setting": "Experiment #1, Compstatin 0-30 μM", "result": 98, "unit": "%"}, {"measurement": "inhibition at 0.75 µM", "setting": "Experiment #1, FUT-175 0-40 μM", "result": 79, "unit": "%"}, {"measurement": "inhibition at 1.5 µM", "setting": "Experiment #1, Compound 1 1.5 μM, Compstatin 0-30 μM", "result": 98, "unit": "%"}]}
